Measured values taken from PubChem BioAssay (NCI).
Values joined by “and” are separate entries in the source; they are usually repeats but may differ in a detail not shown here. Identical values can stand only once.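 Each compound was tested at five concentrations against cells in 96-well plates for 48 hours. Here, GI50 denotes the concentration required for 50% inhibition of growth. TGI: total growth inhibition.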

What was measured:
Assay in all cases: NCI tumour cell line growth inhibition, 48 h
LXFL 529 NSCLC = system: LXFL 529 NSCLC
SNB-78 CNS = system: SNB-78 CNS
MDA-MB-231 breast = system: MDA-MB-231 breast
MDA-MB-435 = system: MDA-MB-435
MDA-N = system: MDA-N
NCI/ADR-RES ovarian = system: NCI/ADR-RES ovarian
PC-3 prostate = system: PC-3 prostate

| Structure (SMILES) | TGI (LXFL 529 NSCLC) | TGI (SNB-78 CNS) | TGI (MDA-MB-231 breast) | TGI (MDA-MB-435) | TGI (MDA-N) | TGI (NCI/ADR-RES ovarian) | TGI (PC-3 prostate) | GI50 (MDA-MB-231 breast) | GI50 (MDA-MB-435) | GI50 (NCI/ADR-RES ovarian) | GI50 (PC-3 prostate) | GI50 (MDA-N) |
| --- | --- | --- | --- | --- | --- | --- | --- | --- | --- | --- | --- | --- |
| CCOC(=O)/C(=C/c1cccc(OC)c1)N(CC)CC | > 100 µM | > 100 µM |  |  |  |  |  |  |  |  |  |  |
| OC(c1ccc(Br)cc1)(c1cccs1)C1CC1 (stereo not drawn) |  |  | 39.6 µM | 36.1 µM | 41.8 µM | 60.5 µM | 52.8 µM |  |  |  |  |  |
| COc1ccc(CC(C)C(C)Cc2ccc(OC)c(OC)c2)cc1OC (stereo not drawn) |  |  | > 1400 µM | > 1400 µM |  | > 1400 µM | > 1400 µM | 126 µM | > 1400 µM | > 1400 µM | > 1400 µM |  |
| CC(=O)OC1COC(n2c(=S)n(-c3ccccc3)c(=O)c3cc(Br)ccc32)C(OC(C)=O)C1OC(C)=O (stereo not drawn) | > 100 µM | > 100 µM |  |  |  |  |  |  |  |  |  |  |
| CNC(=O)c1cc2c(Oc3ccc(NC(=O)C4(C(=O)Nc5ccc(F)cc5)CC4)cc3)ccnc2cc1OC |  |  | > 100 µM | 6.64 µM |  | > 100 µM | > 100 µM | 2.41 µM | 2.28 µM | 3.56 µM | 3.09 µM |  |
| COc1ccc(/C=C2/CCc3cc4ccc(OC)cc4[o+]c32)c(O)c1 |  |  | 18.8 µM | 3.47 µM |  | 50.6 µM | 16.2 µM | 3.75 µM | 1.78 µM | 4.16 µM | 2.74 µM |  |
| C=CCSc1nc2ccccc2c(=O)n1Cc1ccco1 |  |  | > 100 µM | > 100 µM | > 100 µM | > 100 µM | > 100 µM |  |  |  |  |  |
| O=C1C(Cl)=C(Nc2ccccc2)C(=O)c2ccccc21 |  |  | 3.3 µM | 3.27 µM |  | 4.89 µM | 22.1 µM | 1.58 µM | 1.8 µM | 2.11 µM | 3.61 µM |  |
| c1ccc2nc3c(cc4ccccn43)nc2c1 |  |  | > 100 µM | > 100 µM |  | > 100 µM | > 100 µM | 29.8 µM | > 100 µM | > 100 µM | 63.7 µM |  |
| CCN(CC)CCNC(=O)c1cn2ncnc(Oc3ccc(NC(=O)Nc4ccc(Cl)c(C(F)(F)F)c4)c(F)c3)c2c1C |  |  | 3.28 µM | 3.02 µM |  | 3.82 µM | 3.3 µM | 1.63 µM | 1.57 µM | 1.95 µM | 1.53 µM |  |
| c1ccc(Cn2cnc3ccc(-c4nc(-c5ccc6c(c5)ncn6C5CCCCC5)cn5ccnc45)cc32)cc1 |  |  |  |  |  | 5.43 µM | 7.55 µM |  |  | 1.98 µM | 1.97 µM |  |
| CCC1=C[C@@H]2CN(C1)Cc1c([nH]c3ccccc13)[C@@](C(=O)OC)(c1cc3c(cc1OC)N(C)[C@H]1[C@@](O)(C(=O)OC)[C@H](OC(C)=O)[C@]4(CC)[C@@H]5C[C@@H]5CN5CC[C@]31[C@@H]54)C2 |  |  |  |  |  | 2.82 µM and 22.6 µM | 6.54 µM and 15 µM | < 0.005 µM and 0.0335 µM |  | 0.111 µM and 0.662 µM | < 0.005 µM |  |
| O=C(NC12CC3CC(CC(C3)C1)C2)C(=O)c1c[nH]c2ccc(Cl)cc12 | > 100 µM | > 100 µM |  |  |  |  |  |  |  |  |  |  |
| OC(CN1CC1)C(O)CN1CC1 (stereo not drawn) |  |  | > 50 mg/L | > 50 mg/L | > 50 mg/L | > 50 mg/L | > 50 mg/L | > 50 mg/L | > 50 mg/L | > 50 mg/L | > 50 mg/L | > 50 mg/L |
